The values below are quoted from earlier work in patent US11304902B2, “Pharmaceutical compositions, preparation and uses thereof” (CURADIGM SAS, priority 2014, dated 2022).

“Also recorded” adds a separate entry of the source.

Among the targets are CYP2D6 (Homo sapiens, UniProt P10635); CYP3A4 (Homo sapiens, UniProt P08684); CYP4B1 (Homo sapiens, UniProt P13584).
Holding throughout (conditions): human CYP enzyme
The target in a further series is T1, CYP1A2 (Homo sapiens, UniProt P05177).
T1 sequence (P05177 1-516): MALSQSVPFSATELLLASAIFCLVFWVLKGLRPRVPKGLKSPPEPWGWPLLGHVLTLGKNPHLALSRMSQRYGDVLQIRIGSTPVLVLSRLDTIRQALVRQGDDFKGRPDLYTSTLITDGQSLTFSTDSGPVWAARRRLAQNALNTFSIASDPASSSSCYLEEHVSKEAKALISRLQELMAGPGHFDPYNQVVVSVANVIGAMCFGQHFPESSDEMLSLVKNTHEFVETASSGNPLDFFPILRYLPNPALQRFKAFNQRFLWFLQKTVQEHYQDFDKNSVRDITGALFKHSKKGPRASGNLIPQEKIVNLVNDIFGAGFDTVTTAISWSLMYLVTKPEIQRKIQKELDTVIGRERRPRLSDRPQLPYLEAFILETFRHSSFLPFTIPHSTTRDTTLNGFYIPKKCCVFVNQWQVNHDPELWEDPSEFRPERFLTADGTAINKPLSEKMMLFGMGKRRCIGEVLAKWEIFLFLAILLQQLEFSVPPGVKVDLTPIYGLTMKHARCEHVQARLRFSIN

The next series has as its target T2, CYP2A6 (Homo sapiens, UniProt P11509).
T2 sequence (P11509 1-494): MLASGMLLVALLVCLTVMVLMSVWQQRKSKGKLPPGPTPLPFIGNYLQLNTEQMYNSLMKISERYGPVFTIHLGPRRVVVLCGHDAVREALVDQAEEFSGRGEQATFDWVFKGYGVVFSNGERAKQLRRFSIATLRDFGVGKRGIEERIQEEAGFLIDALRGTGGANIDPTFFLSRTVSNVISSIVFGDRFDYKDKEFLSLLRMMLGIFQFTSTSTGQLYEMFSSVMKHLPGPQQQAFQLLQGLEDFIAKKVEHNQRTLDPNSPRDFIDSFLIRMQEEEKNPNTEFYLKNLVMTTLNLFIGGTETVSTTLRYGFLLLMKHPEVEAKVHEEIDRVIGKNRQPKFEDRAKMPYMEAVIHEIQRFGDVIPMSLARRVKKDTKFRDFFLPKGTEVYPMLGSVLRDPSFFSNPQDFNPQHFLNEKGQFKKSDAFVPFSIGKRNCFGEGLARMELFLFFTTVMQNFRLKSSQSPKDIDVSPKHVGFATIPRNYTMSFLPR

The target in a further series is T3, CYP2C8 (Homo sapiens, UniProt P10632).
T3 sequence (P10632 1-490): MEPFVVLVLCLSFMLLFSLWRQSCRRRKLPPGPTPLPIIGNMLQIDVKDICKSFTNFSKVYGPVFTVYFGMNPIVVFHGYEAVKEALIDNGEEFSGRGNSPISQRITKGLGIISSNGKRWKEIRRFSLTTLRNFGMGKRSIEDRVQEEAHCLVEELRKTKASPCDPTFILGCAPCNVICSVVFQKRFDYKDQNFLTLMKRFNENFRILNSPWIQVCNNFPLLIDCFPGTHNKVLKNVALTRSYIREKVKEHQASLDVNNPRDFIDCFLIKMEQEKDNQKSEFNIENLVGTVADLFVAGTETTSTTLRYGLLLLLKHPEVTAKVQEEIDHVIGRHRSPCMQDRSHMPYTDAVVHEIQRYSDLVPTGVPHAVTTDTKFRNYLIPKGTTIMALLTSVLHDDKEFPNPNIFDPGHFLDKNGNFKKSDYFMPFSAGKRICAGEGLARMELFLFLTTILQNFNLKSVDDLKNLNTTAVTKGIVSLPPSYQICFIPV

The next series deals with T4, CYP4A11 (Homo sapiens, UniProt Q02928).
T4 sequence (Q02928 5-519): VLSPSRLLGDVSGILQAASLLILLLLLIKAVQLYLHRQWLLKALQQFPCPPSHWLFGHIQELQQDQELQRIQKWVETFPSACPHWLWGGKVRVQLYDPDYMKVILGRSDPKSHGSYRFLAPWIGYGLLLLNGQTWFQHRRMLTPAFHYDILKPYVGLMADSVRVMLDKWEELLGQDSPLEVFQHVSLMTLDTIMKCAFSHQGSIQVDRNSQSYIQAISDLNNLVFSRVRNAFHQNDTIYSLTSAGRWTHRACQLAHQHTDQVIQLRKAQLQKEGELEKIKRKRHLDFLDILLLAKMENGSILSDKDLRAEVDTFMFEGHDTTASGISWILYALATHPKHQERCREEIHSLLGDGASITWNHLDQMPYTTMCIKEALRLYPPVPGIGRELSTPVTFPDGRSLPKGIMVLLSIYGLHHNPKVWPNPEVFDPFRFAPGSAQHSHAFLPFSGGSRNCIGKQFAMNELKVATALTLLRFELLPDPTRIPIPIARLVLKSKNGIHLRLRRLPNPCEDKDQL

The next series has as its target T5, CYP4F2 (Homo sapiens, UniProt P78329).
T5 sequence (P78329 5-520): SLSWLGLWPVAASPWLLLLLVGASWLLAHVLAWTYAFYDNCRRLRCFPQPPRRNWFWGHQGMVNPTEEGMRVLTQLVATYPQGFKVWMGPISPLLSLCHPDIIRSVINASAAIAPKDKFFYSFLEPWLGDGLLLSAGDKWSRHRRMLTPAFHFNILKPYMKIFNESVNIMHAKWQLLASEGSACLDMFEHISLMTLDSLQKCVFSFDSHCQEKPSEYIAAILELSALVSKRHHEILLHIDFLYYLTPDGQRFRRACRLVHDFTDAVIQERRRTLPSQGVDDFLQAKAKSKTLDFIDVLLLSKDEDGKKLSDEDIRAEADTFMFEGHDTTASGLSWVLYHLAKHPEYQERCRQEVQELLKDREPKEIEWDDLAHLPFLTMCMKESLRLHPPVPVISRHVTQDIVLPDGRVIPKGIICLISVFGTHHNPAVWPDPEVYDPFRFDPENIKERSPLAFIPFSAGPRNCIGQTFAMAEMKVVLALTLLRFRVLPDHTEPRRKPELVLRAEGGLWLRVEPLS

Chain of CYP3A4 (P08684 whole entry): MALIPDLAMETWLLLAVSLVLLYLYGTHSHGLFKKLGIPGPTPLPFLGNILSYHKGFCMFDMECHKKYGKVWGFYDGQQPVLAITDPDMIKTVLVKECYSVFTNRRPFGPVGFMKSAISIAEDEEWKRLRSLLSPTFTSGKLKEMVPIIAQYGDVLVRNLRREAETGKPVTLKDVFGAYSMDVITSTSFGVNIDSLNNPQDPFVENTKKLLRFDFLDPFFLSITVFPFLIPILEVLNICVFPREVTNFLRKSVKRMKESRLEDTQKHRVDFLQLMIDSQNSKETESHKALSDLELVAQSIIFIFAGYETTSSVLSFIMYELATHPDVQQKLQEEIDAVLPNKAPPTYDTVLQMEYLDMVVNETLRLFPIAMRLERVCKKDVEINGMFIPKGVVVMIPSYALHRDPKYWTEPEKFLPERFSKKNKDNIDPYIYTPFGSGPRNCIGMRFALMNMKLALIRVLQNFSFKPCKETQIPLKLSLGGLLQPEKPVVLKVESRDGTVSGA
Chain of CYP2D6 (P10635 whole entry): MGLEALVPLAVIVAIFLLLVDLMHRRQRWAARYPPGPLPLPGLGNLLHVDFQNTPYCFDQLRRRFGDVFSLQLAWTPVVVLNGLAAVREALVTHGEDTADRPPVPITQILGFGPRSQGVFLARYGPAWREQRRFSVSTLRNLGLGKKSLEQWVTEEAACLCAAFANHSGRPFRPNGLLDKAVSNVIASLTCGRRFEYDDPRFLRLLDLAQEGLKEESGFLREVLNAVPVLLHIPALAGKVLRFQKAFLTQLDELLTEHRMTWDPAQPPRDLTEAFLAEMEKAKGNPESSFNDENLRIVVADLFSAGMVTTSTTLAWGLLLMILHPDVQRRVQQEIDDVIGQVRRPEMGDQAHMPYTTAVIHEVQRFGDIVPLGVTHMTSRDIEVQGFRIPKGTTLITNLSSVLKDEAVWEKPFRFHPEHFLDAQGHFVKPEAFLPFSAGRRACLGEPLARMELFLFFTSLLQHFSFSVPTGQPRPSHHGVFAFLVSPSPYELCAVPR
Chain of CYP4B1 (P13584 whole entry): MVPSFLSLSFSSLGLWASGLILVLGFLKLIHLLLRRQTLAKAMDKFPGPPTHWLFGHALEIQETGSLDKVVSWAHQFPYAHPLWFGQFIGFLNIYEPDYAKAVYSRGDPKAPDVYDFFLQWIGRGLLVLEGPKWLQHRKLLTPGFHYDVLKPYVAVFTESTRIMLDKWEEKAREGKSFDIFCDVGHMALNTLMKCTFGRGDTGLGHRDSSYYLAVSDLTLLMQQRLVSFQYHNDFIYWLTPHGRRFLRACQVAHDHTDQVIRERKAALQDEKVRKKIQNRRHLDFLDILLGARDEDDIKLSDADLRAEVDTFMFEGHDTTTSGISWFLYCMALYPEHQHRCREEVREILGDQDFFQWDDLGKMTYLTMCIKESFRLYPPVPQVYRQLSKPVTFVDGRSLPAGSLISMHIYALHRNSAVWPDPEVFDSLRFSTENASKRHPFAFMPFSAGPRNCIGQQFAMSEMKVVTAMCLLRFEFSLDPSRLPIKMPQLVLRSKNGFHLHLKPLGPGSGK

As to `CCCCC/C=C\C/C=C\C/C=C\C/C=C\CCCC(=O)O` [Arachidonic acid, arachidonic acid], at CYP1A2, the “role towards CYP1A2 (substrate / inhibitor / inducer)” value was “Substrate; also recorded: Inhibitor”. Besides, the “role towards CYP2A6 (substrate / inhibitor / inducer)” value on CYP2A6 is given as “Substrate”. At CYP2C8, the “role towards CYP2C8 (substrate / inhibitor / inducer)” value was “Substrate”. The “role towards CYP2D6 (substrate / inhibitor / inducer)” value on CYP2D6 is given as “Inhibitor”. Also, the “role towards CYP3A4 (substrate / inhibitor / inducer)” value at CYP3A4 is listed as “Inhibitor; also recorded: Substrate”. Further, the “role towards CYP4A11 (substrate / inhibitor / inducer)” value on CYP4A11 is “Substrate”. Also, the “role towards CYP4B1 (substrate / inhibitor / inducer)” value at CYP4B1 is listed as “Substrate”. The “role towards CYP4F2 (substrate / inhibitor / inducer)” value on CYP4F2 was “Substrate”.
